Blank lines part the entries; values can stand above or below the compound they belong to. The source made the active and inactive calls.
Columns and labels:
[1] = HEK293 Cytotoxicity Assay Measured in Cell-Based System Using Plate Reader - 7071-01_Inhibitor_Dose_CherryPick_Activity_Set2.; type: functional
HEK293 = assay: viability loss in HEK293T cells – cell-based, ATP luminescence, cherry-pick samples, cytotoxicity control, dose response (AID 687005); type: functional; details: Homo sapiens;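 note: cells exposed to compound for 48 hours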
Kallikrein-7 = Kallikrein-7 (Homo sapiens, UniProt P49862); assay: Fluorescence Intensity-based biochemical primary high throughput dose response assay to identify activators of kallikrein-7 (K7) zymogen.
[2] = molecular target: NAD-dependent protein deacylase sirtuin-5, mitochondrial (Homo sapiens, UniProt Q9NXA8); assay: sirtuin-5 deacylation blockers, concentration series – biochemical, fluorescence imaging, cherry-pick, set 5, dose response (AID 720591);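 note: desuccinylation of succinyl peptide AMC substrate read as fluorescence after trypsin release; potency of inhibitors that lower fluorescence and may act on trypsin instead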
[3] = NIH3T3 cell viability loss – ATP luminescence, mouse fibroblasts, counter-screen, dose response (AID 2010); type: functional, cell-based;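 note: cells exposed to compound for about 90 hours before reading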
[4] = viability loss in THP-1 monocytes – THP-1 cells, cytotoxicity control for Vif-APOBEC3G degradation inhibitor project, dose response (AID 1117359); type: functional; details: THP-1
[5] = Trypanosoma cruzi growth suppression in host cells – NIH3T3 host cells, beta-gal luminescence, confirmation (AID 2044); type: functional, cell-based;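 note: intracellular parasites grown in NIH/3T3 mouse fibroblasts as host cells; luminescent beta-galactosidase reporter signal from transgenic T. cruzi replicating inside host cells; inhibitors lower the luminescence signal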
BJ [6] = assay: BJ-TERT-LT-ST fibroblast viability loss – cell-based, RAS-independent, luminescence, dose response (AID 1935); type: functional; details: Homo sapiens;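 note: BJ fibroblasts immortalized with TERT plus LT and ST oncogenes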
Transthyretin = Transthyretin (Homo sapiens, UniProt P02766); assay: Luminescence-based cell-based high throughput dose response assay to identify activators of Transthyretin (TTR) transcription.; type: functional
BJ [7] = assay: growth inhibition of engineered Ras-driven BJ cells – cell-based, alamar blue fluorescence, cherrypicked samples, dose response (AID 2631); type: functional; details: Homo sapiens;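 note: confirmatory dose-response assay in RAS-dependent BJ fibroblasts engineered with TERT, LT and ST, with cytotoxicity read by fluorescence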
BJ [8] = assay: cells; type: functional, cell-based; details: Homo sapiens
[9] = molecular target: T1, Short transient receptor potential channel 4 (Mus musculus, UniProt Q9QUQ5); assay: block of DAMGO-driven TRPC4 calcium entry – cell-based, HEK293 TRPC4/mu-opioid, Fluo-4 calcium, dose response (AID 434942); type: functional;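 note: potency of inhibitors blocking the TRPC4 calcium response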
T1 sequence (Q9QUQ5 whole entry): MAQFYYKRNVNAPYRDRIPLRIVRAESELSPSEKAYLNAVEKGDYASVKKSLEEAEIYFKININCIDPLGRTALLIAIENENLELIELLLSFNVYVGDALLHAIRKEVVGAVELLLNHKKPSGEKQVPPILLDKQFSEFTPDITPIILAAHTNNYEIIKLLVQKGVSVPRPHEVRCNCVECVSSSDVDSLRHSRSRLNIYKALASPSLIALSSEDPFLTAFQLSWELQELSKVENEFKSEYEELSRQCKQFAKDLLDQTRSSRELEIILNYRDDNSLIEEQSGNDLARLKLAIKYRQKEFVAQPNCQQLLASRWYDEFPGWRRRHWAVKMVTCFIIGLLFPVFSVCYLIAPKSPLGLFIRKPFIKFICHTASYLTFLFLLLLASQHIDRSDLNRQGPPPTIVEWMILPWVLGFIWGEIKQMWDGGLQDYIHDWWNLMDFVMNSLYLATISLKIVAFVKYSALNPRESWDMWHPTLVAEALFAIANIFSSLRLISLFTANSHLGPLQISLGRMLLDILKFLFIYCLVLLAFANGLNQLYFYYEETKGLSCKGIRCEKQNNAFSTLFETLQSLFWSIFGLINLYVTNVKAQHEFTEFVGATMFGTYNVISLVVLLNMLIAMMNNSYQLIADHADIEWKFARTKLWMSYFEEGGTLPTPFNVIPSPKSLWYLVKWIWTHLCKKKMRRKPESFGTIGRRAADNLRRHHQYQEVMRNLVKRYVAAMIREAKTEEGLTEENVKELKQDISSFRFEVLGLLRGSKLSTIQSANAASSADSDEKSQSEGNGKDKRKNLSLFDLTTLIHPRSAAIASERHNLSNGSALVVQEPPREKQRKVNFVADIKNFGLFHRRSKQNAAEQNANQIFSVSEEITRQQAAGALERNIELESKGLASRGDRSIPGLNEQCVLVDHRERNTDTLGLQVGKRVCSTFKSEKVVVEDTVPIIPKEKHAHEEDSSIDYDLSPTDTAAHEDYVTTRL

[10] = DRD fibroblast viability loss – cell-based, non-viral oncogenic, luminescence, dose response (AID 1934); type: functional; details: Homo sapiens
BJ [11] = assay: BJ-TERT fibroblast viability loss – cell-based, RAS-independent, luminescence, dose response (AID 1933); type: functional; details: Homo sapiens
[12] = molecular target: Potassium channel subfamily K member 3 (Homo sapiens, UniProt O14649); assay: inhibition of human KCNK3 channel flux – CHO cells, FluxOR thallium flux, SAR follow-up (AID 652212); type: functional
[13] = molecular target: Potassium channel subfamily K member 9 (Homo sapiens, UniProt Q9NPC2); assay: KCNK9 flux blockade, concentration-response – cell-based, FluxOR thallium flux, selectivity assay for TASK1 inhibitor project, SAR follow-up (AID 652211); type: functional;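 note: potency is for inhibitors of the channel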
[14] = OVCAR-3 cell viability loss – plate reader, dry powder samples, PAX8 inhibitor project, dose response (AID 743044); type: functional, cell-based
[15] = A2780 cell killing – plate reader, dry powder samples, cytotoxicity control, dose response (AID 743046); type: functional, cell-based
Paired box protein Pax-8 = Paired box protein Pax-8 (Homo sapiens, UniProt Q06710); assay: PAX8 transcriptional activity inhibition in RMG-I – RMG-I cells, luciferase, cherry-pick, dose response (AID 687027); type: functional, cell-based;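 note: luciferase reporter driven by Pax8 target thyroperoxidase promoter measured by SteadyGlo luminescence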
[16] = OVCAR8 cell viability loss – plate reader, dry powder samples, PAX8 project, dose response (AID 743197); type: functional, cell-based; details: OVCAR-8
[17] = viability loss in HEK293 cells – cell-based, plate reader, cherry-picked samples, cytotoxicity control, dose response (AID 743446); type: functional
[18] = blockers of bursicon-stimulated LGR2 cAMP reporter – cell-based, HEK293, CRE-luciferase reporter, cherry pick, set 2, dose response (AID 743343); type: functional;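 note: transfected cells were stimulated with diluted bursicon conditioned medium after compound addition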
[19] = A549 cell cytotoxicity, dose response, cytotoxicity control, plate reader, cherry-pick, antagonist series (AID 743412); type: functional, cell-based
[20] = toxicity toward HepG2 liver cells – cell-based, plate reader, cherry-pick, antagonist series, cytotoxicity control, dose response (AID 743416); type: functional
[21] = blockade of melanocortin 4 receptor signaling – cell-based, plate reader, cherry pick, counter-screen for LGR2 antagonist project, dose response (AID 743444); type: functional;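 note: transfected HEK 293 cells stimulated with alpha-MSH peptide; potency of inhibitors of the alpha-MSH evoked signal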
[22] = molecular target: G-protein coupled receptor 183 (Homo sapiens, UniProt P32249); assay: SAR confirmation of small molecule antagonists of the EBI2 receptor via a luminescent beta-arrestin assa.; type: functional
INS1 = assay: INS-1E survival protection against cytokine death – cell-based, luminescence, retest, dose response (AID 449756); type: functional; details: Rattus norvegicus;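 note: cell death triggered by IL-1 beta plus TNF-alpha plus IFN-gamma mixture; protective hits raise ATP signal compared with cytokine alone wells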
[23] = molecular target: T2, DNA repair and recombination protein RAD54-like (Homo sapiens, UniProt Q92698); assay: RAD54 Holliday junction migration blockers – biochemical, fluorescence, cherry-picked samples, dose series, confirmation (AID 651657); type: functional
T2 sequence (Q92698 whole entry): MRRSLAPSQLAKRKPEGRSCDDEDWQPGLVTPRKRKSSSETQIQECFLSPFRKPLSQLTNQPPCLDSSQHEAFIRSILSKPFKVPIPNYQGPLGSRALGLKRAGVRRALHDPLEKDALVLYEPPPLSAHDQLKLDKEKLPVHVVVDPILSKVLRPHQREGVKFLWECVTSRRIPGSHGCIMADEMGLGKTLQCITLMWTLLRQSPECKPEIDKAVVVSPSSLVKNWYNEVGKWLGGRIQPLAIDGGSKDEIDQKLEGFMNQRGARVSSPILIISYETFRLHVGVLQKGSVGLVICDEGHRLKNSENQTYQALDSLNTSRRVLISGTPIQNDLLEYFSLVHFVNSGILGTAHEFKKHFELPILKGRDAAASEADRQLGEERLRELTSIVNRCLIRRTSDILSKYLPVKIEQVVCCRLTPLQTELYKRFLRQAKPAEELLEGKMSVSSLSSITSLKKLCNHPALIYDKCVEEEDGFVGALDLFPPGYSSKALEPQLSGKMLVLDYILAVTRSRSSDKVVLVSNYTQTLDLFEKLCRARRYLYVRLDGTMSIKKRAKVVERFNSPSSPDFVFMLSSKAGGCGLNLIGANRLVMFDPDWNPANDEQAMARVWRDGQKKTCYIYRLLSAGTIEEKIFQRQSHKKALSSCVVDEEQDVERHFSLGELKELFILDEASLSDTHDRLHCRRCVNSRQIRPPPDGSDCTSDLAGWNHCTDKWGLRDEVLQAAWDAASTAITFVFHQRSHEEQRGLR

[24] = molecular target: T3, DNA repair protein RAD52 homolog (Homo sapiens, UniProt P43351); type: functional, biochemical
T3 sequence (P43351 whole entry): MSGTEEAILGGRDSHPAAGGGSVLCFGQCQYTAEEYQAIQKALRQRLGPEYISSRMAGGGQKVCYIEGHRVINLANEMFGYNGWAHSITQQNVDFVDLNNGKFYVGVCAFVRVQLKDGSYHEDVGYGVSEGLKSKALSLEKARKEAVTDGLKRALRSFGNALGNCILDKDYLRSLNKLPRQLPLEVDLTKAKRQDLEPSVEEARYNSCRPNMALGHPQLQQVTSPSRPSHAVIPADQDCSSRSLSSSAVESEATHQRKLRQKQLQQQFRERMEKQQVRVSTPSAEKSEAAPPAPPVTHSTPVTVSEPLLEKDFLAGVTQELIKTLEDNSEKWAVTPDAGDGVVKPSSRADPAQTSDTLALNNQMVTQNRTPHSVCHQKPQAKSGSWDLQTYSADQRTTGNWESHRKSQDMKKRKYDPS

G-protein coupled receptor 183, sequence (P32249 whole entry): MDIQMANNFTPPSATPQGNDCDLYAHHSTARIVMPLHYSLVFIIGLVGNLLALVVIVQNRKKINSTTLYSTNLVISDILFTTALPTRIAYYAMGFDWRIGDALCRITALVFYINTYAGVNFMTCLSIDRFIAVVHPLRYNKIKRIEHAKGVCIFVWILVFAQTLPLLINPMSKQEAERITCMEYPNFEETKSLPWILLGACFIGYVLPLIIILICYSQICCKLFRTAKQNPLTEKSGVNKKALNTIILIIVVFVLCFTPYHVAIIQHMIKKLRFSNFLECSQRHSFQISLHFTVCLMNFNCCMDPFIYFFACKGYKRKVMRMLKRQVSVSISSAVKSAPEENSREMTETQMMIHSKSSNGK
NAD-dependent protein deacylase sirtuin-5, mitochondrial, sequence (Q9NXA8 whole entry): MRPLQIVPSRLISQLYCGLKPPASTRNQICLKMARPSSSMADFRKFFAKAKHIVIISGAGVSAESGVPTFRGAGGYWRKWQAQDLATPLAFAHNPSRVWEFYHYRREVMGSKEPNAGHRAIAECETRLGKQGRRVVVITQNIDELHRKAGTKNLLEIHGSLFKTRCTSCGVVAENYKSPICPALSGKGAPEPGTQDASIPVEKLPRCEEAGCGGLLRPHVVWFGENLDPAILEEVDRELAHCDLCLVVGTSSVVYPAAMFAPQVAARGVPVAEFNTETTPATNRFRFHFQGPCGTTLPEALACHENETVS
Potassium channel subfamily K member 3, sequence (O14649 whole entry): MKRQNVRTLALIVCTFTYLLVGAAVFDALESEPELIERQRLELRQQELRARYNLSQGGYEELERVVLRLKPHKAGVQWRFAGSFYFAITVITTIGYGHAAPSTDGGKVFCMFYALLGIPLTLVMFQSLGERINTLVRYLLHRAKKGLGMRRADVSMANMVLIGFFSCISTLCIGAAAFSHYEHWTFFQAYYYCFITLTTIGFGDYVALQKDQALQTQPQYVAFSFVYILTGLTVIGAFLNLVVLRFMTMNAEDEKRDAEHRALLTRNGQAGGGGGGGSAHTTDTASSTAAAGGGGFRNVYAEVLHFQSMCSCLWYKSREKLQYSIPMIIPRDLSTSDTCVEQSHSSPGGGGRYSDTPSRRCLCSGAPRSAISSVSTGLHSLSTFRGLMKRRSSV
Paired box protein Pax-8, sequence (Q06710 whole entry): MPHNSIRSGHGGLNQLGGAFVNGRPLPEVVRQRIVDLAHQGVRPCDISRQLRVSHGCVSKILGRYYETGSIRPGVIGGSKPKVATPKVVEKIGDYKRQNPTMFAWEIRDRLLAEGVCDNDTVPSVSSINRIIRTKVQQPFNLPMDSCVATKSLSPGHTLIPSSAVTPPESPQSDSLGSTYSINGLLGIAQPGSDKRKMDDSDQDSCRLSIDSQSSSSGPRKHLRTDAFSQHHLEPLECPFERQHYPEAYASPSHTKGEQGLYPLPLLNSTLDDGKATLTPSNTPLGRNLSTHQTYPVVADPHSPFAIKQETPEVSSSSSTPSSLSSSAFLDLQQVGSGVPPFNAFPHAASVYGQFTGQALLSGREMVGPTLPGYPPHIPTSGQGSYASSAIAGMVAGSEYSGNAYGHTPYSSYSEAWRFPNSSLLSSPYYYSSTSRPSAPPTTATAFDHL
Kallikrein-7, sequence (P49862 whole entry): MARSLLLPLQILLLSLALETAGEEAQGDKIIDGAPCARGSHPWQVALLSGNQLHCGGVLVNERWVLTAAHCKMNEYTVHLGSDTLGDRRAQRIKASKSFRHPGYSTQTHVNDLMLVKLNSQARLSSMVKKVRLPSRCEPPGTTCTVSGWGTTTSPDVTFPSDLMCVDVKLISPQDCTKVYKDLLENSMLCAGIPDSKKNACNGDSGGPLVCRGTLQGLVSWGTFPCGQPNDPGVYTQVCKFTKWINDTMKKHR
Potassium channel subfamily K member 9, sequence (Q9NPC2 whole entry): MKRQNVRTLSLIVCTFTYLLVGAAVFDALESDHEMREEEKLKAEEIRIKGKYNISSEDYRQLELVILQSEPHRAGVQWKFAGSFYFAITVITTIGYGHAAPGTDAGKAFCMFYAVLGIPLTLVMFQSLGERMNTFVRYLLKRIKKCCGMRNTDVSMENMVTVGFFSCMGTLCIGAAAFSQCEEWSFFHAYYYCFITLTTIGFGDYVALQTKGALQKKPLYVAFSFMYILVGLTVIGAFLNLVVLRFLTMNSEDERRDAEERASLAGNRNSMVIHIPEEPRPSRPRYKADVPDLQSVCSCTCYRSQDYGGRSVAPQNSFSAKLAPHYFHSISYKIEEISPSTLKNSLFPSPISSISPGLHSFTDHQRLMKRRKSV

SMILES: CCS(=O)(=O)N1CCCCN2[C@H](C1)[C@@H](c1ccc(-c3ccc(C#N)cc3)cc1)[C@@H]2CO
AC50 [1]: 18.6 µM (active)
AC50 (HEK293): 18.6 µM (active)

SMILES: O=[N+]([O-])c1ccc(/C=N/Nc2nc(N3CCCC3)nc(N3CCCC3)n2)o1
EC50 [3]: > 60 µM (not active)
CC50 [4]: > 40 µM (active)
EC50 [5]: 0.563 µM (active)

SMILES: CN(C)CC(CCC(CN(C)C)C(O)(c1ccccc1)c1ccccc1)C(O)(c1ccccc1)c1ccccc1 (configuration not stated)
EC50 (BJ [6]): 5.82 µM (inconclusive)
EC50 (Transthyretin): > 167 µM (inactive)
EC50 (BJ [7]): 2.13 µM (active)
EC50 (BJ [8]): 11.6 µM (active)
EC50 [9]: 1.68 µM (active)
EC50 [10]: 5.81 µM (active)
EC50 (BJ [11]): 4.97 µM (inconclusive)

SMILES: C[C@H](CO)N1C[C@H](C)[C@H](CN(C)Cc2ccc(C(F)(F)F)cc2)OCCCC[C@H](C)Oc2ccc(NC(=O)Nc3ccccc3)cc2C1=O
AC50 [14]: 27.6 µM (active)
AC50 [15]: 11.8 µM (active)
AC50 (Paired box protein Pax-8): 8.44 µM (active)
AC50 [16]: 30.7 µM (active)

SMILES: NC(=O)c1ccsc1NC(=O)c1ccc(N2CCCC2=O)cc1
AC50 [17]: > 52 µM (inactive)
AC50 [18]: 10.5 µM (active)
AC50 [19]: 50.9 µM (active)
AC50 [20]: > 52 µM (inactive)
AC50 [21]: 16.5 µM (active)

SMILES: COc1ccc(CCNc2c3ccccc3nc3ccccc23)cc1OC
AC50 (INS1): 4.5 µM (active)
EC50 (Transthyretin): > 167 µM (inactive)
AC50 [23]: 7.87 µM (active)
AC50 [24]: 6.38 µM (active)

Next, values leading:

EC50 (Kallikrein-7): > 69.5 µM (inactive)
SMILES: CN1C(=O)c2ccccc2N(C)C1c1ccc(F)cc1 (configuration not stated)

AC50 [2]: > 30 µM (inactive)
SMILES: O=C(Cn1cnc(S(=O)(=O)N2CCCC2)c1)Nc1cccc(Br)c1

IC50 [12]: 0.084 µM (active)
IC50 [13]: 2.63 µM (active)
SMILES: CCOc1ccccc1NC(=O)c1cccc(NC(=O)c2ccccc2Cl)c1

AC50 [2]: > 30 µM (inactive)
SMILES: CCCCCCCCN1C(=O)[C@H](CC(=O)NCCCN2CCCC2=O)C[C@@]2(C(=O)OC)CC(C)(C)CC=C12

IC50 [22]: 0.0468 µM (active)
SMILES: CC(C)(C)c1ccc(S(=O)(=O)N2CCN(C(=O)/C=C/c3ccc(Cl)c(Cl)c3)CC2)cc1

IC50 [22]: 0.0287 µM (active)
SMILES: O=C(/C=C/c1ccc(F)cc1)N1CCN(S(=O)(=O)Cc2ccccc2)CC1

Source: ChEMBL document CHEMBL1201862, “PubChem BioAssay data set” (2004)
